Columns and labels:
[1] = Compound cytotoxicity, XTT-based colorimetric assay; format: cell-based; settings: human; uninfected MT2 cells, day 4, XTT
Method: Compound cytotoxicity and the corresponding CC50 values were determined using the same protocol as described in the antiviral assay except that uninfected cells were used. Cytotoxicity was assessed on day 4 in uninfected MT2 cells by using a XTT (2,3-bis[2-Methoxy-4-nitro-5-sulfophenyl]-2H-tetrazolium-5-carboxyanilide inner salt)-based colorimetric assay (Sigma-Aldrich, St Louis, Mo.).

[2] = tested on: recombinant NL4-3 virus (Renilla luciferase) in MT-2 cells; test: HIV cell culture assay (antiviral activity, luciferase readout); format: cell-based; settings: Renilla, NL43
Method: HIV cell culture assay—MT-2 cells, 293T cells and the proviral DNA clone of NL4-3 virus were obtained from the NIH AIDS Research and Reference Reagent Program. MT-2 cells were propagated in RPMI 1640 media supplemented with 10% heat inactivated fetal bovine serum (FBS), […]. The 293T cells were propagated in DMEM media supplemented with 10% heat inactivated FBS, […] penicillin G and […] streptomycin. A recombinant NL40.3 proviral clone, in which a section of the nef gene was replaced with the Renilla luciferase gene, was used to make the reference virus used in these studies. The recombinant virus was prepared through transfection of the recombinant NL4-3 proviral clone into 293T cells using Transit-293 Transfection Reagent from Minis Bio LLC (Madison, Wis.). Supernatent was harvested after 2-3 days and the amount of virus present was titered in MT-2 cells using luciferase enzyme activity as a marker by measuring luciferase enzyme activity. Luciferase was quantitated using the EnduRen Live Cell Substrate from Promega (Madison, Wis.). Antiviral activities of compounds toward the recombinant virus were quantified by measuring luciferase activity in MT-2 cells infected for 4-5 days with the recombinant virus in the presence of serial dilutions of the compound.
The 50% effective concentration (EC50) was calculated by using the exponential form of the median effect equation where (Fa)=1/[1+(ED50/drug conc.)m] (Johnson V A, Byington R T. Infectivity Assay. In Techniques in HIV Research. ed. Aldovini A, Walker B D. 71-76. New York: Stockton Press. 1990). The 50% inhibitory concentration (EC50) was calculated by using the exponential form of the median effect equation where percent inhibition=1/[1+(EC50/drug concentration)m], where m is a parameter that reflects the slope of the concentration-response curve.

Question: Which results are given for `Cc1ccc(F)c(-c2ccc3c(=O)n(-c4ccc(Cl)c5c(NS(C)(=O)=O)nn(CC(F)F)c45)c([C@H](Cc4cc(F)cc(F)c4)NC(=O)Cn4nc(C(F)F)c5c4C(F)(F)[C@@H]4C[C@H]54)nc3c2)n1` (atropisomer, axis not shown) [Example 122]?
Answer: CC50 at 4 days [1]: > 500 nM; EC50 [2]: 0.08 nM

Question: What does the source list for `COc1cc(C(F)(F)F)nc(-c2ccc3c(=O)n(-c4ccc(Cl)c5c(NS(C)(=O)=O)nn(C)c45)c([C@H](Cc4cc(F)cc(F)c4)NC(=O)Cn4nc(C(F)F)c5c4C(F)(F)[C@@H]4C[C@H]54)nc3c2)n1` (atropisomer, axis not shown; (P)) [Example 54, N—((S)-1-((3P)-3-(4-chloro-1-methyl-3-(methylsulfonamido)-1H-indazol-7-yl)-7-(4-methoxy-6-(trifluoromethyl)pyrimidin-2-yl)-4-oxo-3,4-dihydroquinazolin-2-yl)-2-(3,5-difluorophenyl)ethyl)-2-((3bS,4aR)-3-(difluoromethyl)-5,5-difluoro-3b,4,4a,5-tetrahydro-1H-cyclopropa[3,4]cyclopenta[1,2-c]pyrazol-1-yl)acetamide]?
Answer: CC50 at 4 days [1]: > 500 nM; EC50 [2]: 0.31 nM

Question: Which CC50 at 4 days [1] does the source give for `CCc1cc(-c2ccc3c(=O)n(-c4ccc(Cl)c5c(NS(=O)(=O)C6CC6)nn(CC(F)F)c45)c([C@H](Cc4cc(F)cc(F)c4)NC(=O)Cn4nc(C(F)F)c5c4C(F)(F)[C@@H]4C[C@H]54)nc3c2)nc(C)n1` (atropisomer, axis not shown; (P)) [Example 94, N—((S)-1-((3P)-3-(4-chloro-3-(cyclopropanesulfonamido)-1-(2,2-difluoroethyl)-1H-indazol-7-yl)-7-(6-ethyl-2-methylpyrimidin-4-yl)-4-oxo-3,4-dihydroquinazolin-2-yl)-2-(3,5-difluorophenyl)ethyl)-2-((3bS,4aR)-3-(difluoromethyl)-5,5-difluoro-3b,4,4a,5-tetrahydro-1H-cyclopropa[3,4]cyclopenta[1,2-c]pyrazol-1-yl)acetamide] here?
Answer: > 500 nM

Question: What about the EC50 [2] of the same compound?
Answer: 0.13 nM

Question: For `Cc1nnc(-c2ccc3c(=O)n(-c4ccc(Cl)c5c(NS(=O)(=O)C6CC6)nn(CC(F)F)c45)c([C@H](Cc4cc(F)cc(F)c4)NC(=O)Cn4nc(C(F)F)c5c4C(F)(F)[C@@H]4C[C@H]54)nc3c2)nc1C` (atropisomer, axis not shown; (P)) [Example 87, N—((S)-1-((3P)-3-(4-chloro-3-(cyclopropanesulfonamido)-1-(2,2-difluoroethyl)-1H-indazol-7-yl)-7-(5,6-dimethyl-1,2,4-triazin-3-yl)-4-oxo-3,4-dihydroquinazolin-2-yl)-2-(3,5-difluorophenyl)ethyl)-2-((3bS,4aR)-3-(difluoromethyl)-5,5-difluoro-3b,4,4a,5-tetrahydro-1H-cyclopropa[3,4]cyclopenta[1,2-c]pyrazol-1-yl)acetamide], which CC50 at 4 days [1] is on record?
Answer: > 500 nM

Question: And the EC50 [2]?
Answer: 0.058 nM

Question: Which CC50 at 4 days [1] does the source give for `Cn1nc(NS(C)(=O)=O)c2c(Cl)ccc(-n3c([C@H](Cc4cc(F)cc(F)c4)NC(=O)Cn4nc(C(F)F)c5c4C(F)(F)[C@@H]4C[C@H]54)nc4cc(-c5ncccc5S(C)(=O)=O)ccc4c3=O)c21` (atropisomer, axis not shown; (P)) [Example 8, N—((S)-1-((3P)-3-(4-chloro-1-methyl-3-(methylsulfonamido)-1H-indazol-7-yl)-7-(3-(methylsulfonyl)pyridin-2-yl)-4-oxo-3,4-dihydroquinazolin-2-yl)-2-(3,5-difluorophenyl)ethyl)-2-((3bS,4aR)-3-(difluoromethyl)-5,5-difluoro-3b,4,4a,5-tetrahydro-1H-cyclopropa[3,4]cyclopenta[1,2-c]pyrazol-1-yl)acetamide] here?
Answer: > 500 nM

Question: And the EC50 [2]?
Answer: 0.078 nM

Question: Which results are given for `Cc1ccnnc1-c1ccc2c(=O)n(-c3ccc(Cl)c4c(NS(C)(=O)=O)nn(C)c34)c([C@H](Cc3cc(F)cc(F)c3)NC(=O)Cn3nc(C(F)F)c4c3C(F)(F)[C@@H]3C[C@H]43)nc2c1` (atropisomer, axis not shown; (P)) [Example 51, N—((S)-1-((3P)-3-(4-chloro-1-methyl-3-(methylsulfonamido)-1H-indazol-7-yl)-7-(4-methylpyridazin-3-yl)-4-oxo-3,4-dihydroquinazolin-2-yl)-2-(3,5-difluorophenyl)ethyl)-2-((3bS,4aR)-3-(difluoromethyl)-5,5-difluoro-3b,4,4a,5-tetrahydro-1H-cyclopropa[3,4]cyclopenta[1,2-c]pyrazol-1-yl)acetamide]?
Answer: CC50 at 4 days [1]: > 500 nM; EC50 [2]: 0.14 nM

Question: With `COc1ccc(-c2ccc3c(=O)n(-c4ccc(Cl)c5c(NS(C)(=O)=O)nn(C)c45)c([C@H](Cc4cc(F)cc(F)c4)NC(=O)Cn4nc(C(F)F)c5c4C(F)(F)[C@@H]4C[C@H]54)nc3c2)nn1` (atropisomer, axis not shown; (P)) [Example 7, N—((S)-1-((3P)-3-(4-chloro-1-methyl-3-(methylsulfonamido)-1H-indazol-7-yl)-7-(6-methoxypyridazin-3-yl)-4-oxo-3,4-dihydroquinazolin-2-yl)-2-(3,5-difluorophenyl)ethyl)-2-((3bS,4aR)-3-(difluoromethyl)-5,5-difluoro-3b,4,4a,5-tetrahydro-1H-cyclopropa[3,4]cyclopenta[1,2-c]pyrazol-1-yl)acetamide] as the compound, how does the CC50 at 4 days [1] read?
Answer: > 500 nM

Question: What about the EC50 [2] of the same compound?
Answer: 0.053 nM

Question: With `COc1cnc(-c2ccc3c(=O)n(-c4ccc(Cl)c5c(NS(=O)(=O)C6CC6)nn(CC(F)F)c45)c([C@H](Cc4cc(F)cc(F)c4)NC(=O)Cn4nc(C(F)F)c5c4C(F)(F)[C@@H]4C[C@H]54)nc3c2)nc1` (atropisomer, axis not shown) [Example 98, N-[(1S)-1-{3-[4-chloro-3-cyclopropanesulfonamido-1-(2,2-difluoroethyl)-1H-indazol-7-yl]-7-(5-methoxypyrimidin-2-y1)-4-oxo-3,4-dihydroquinazolin-2-yl}-2-(3,5-difluorophenyl)ethyl]-2-[(2S,4R)-9-(difluoromethyl)-5,5-difluoro-7,8-diazatricyclo[4.3.0.0^2,^4]nona-1(6),8-dien-7-yl]acetamide] as the compound, how does the CC50 at 4 days [1] read?
Answer: > 500 nM

Question: And the EC50 [2]?
Answer: 0.16 nM

Question: Which results are given for `Cc1ccc(F)c(-c2ccc3c(=O)n(-c4ccc(Cl)c5c(NS(=O)(=O)C6CC6)nn(CC(F)F)c45)c([C@H](Cc4cc(F)cc(F)c4)NC(=O)Cn4nc(C(F)F)c5c4C(F)(F)[C@@H]4C[C@H]54)nc3c2)n1` (atropisomer, axis not shown) [Example 96, N-[(1S)-1-{3-[4-chloro-3-cyclopropanesulfonamido-1-(2,2-difluoroethyl)-1H-indazol-7-yl]-7-(3-fluoro-6-methylpyridin-2-yl)-4-oxo-3,4-dihydroquinazolin-2-yl}-2-(3,5-difluorophenyl)ethyl]-2-[(2S,4R)-9-(difluoromethyl)-5,5-difluoro-7,8-diazatricyclo[4.3.0.0^2,^4]nona-1(6),8-dien-7-yl]acetamide]?
Answer: CC50 at 4 days [1]: > 500 nM; EC50 [2]: 0.24 nM

Question: Which CC50 at 4 days [1] does the source give for `Cc1ncc(F)c(-c2ccc3c(=O)n(-c4ccc(C)c5c(NS(C)(=O)=O)nn(C)c45)c([C@H](Cc4cc(F)cc(F)c4)NC(=O)Cn4nc(C(F)F)c5c4C(F)(F)[C@@H]4C[C@H]54)nc3c2)n1` (atropisomer, axis not shown) [Example 140, 2-[(2S,4R)-9-(difluoromethyl)-5,5-difluoro-7,8-diazatricyclo[4.3.0.0^2,^4]nona-1(6),8-dien-7-yl]-N-[(1S)-2-(3,5-difluorophenyl)-1-[7-(5-fluoro-2-methylpyrimidin-4-yl)-3-(3-methanesulfonamido-1,4-dimethyl-1H-indazol-7-yl)-4-oxo-3,4-dihydroquinazolin-2-yl]ethyl]acetamide] here?
Answer: > 500 nM

Question: What about the EC50 [2] of the same compound?
Answer: 0.097 nM

From patent publication US11541055B2, “Inhibitors of human immunodeficiency virus replication” (ViiV Healthcare UK (No. 5) LIMITED, priority 2018, dated 2023)
